Where two headings read alike, the source gives them in different places.
Experiments:
human 5-LOX = target: T1, human 5-LOX (Homo sapiens, UniProt P09917); test: 5-LOX enzyme activity, fluorescence method (5-HPETE, H2DCFDA); assay type: biochemical
T1 construct: purchased Cayman 60402; host or cells: insect cells (lysate)
T1 sequence (P09917 1-674): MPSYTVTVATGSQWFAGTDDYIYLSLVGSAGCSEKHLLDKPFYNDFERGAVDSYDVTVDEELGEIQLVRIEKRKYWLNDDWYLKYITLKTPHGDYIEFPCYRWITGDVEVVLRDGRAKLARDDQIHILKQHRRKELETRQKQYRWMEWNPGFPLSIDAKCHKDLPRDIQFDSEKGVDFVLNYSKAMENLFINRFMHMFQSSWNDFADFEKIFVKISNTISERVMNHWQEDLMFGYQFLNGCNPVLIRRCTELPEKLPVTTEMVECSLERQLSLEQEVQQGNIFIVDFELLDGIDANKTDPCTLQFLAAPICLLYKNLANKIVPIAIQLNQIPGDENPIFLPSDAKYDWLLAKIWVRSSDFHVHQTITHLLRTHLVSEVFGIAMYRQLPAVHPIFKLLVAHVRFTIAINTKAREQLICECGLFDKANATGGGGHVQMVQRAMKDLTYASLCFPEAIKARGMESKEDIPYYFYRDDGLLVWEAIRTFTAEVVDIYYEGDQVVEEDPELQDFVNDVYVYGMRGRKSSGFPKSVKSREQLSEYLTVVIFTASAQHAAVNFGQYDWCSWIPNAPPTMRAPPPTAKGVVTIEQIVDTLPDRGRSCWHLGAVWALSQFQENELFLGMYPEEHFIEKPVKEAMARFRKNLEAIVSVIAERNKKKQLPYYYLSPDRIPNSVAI
Procedure, shortened: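 Fluorescence-based read-out, run entirely at room temperature. Enzyme mixture was exposed to a dose range of compound from 0.5 nM to 10 uM for 5 min before ATP and arachidonic acid were added to final levels of 100 uM and 3 uM.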

[1] = system: Rat basophilic leukemia (RBL) cells; test: LTB4 secretion assay in RBL (rat basophilic leukemia cells); assay type: cell-based
Procedure, shortened: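 LTB4 released into supernatant was measured by EIA after 10 min at 37 °C with arachidonic acid (2.5 uM final) and calcium ionophore A23187 (5 uM final). Before stimulation, cells plated 2×10^4/well overnight received compound doses (5 nM to 100 uM) for 15 min in 0.5% FBS medium.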

Rat whole blood (RWB) = test: LTB4 secretion assay in RWB (rat whole blood); assay type: cell-based
Procedure, shortened: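 LTB4 release was measured by EIA in supernatants of pooled, sodium heparin rat blood (male Sprague Dawley, 6-9 weeks) diluted 1:1 with RPMI. Compounds (2.5 nM to 50 uM) were added 15 min before A23187 (10 uM final), with 10 min stimulation at 37 °C before ice-cold PBS quench.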

HeLa S3 cells = test: PGE2 inhibition assay (HTRF) in TNF-α stimulated HeLa S3 cells; assay type: cell-based; conditions: Homo sapiens; PGE2, 10 uM compound, HeLa S3 stimulated with TNF-α
Experimental: Human epitheloid cervix carcinoma HeLa S3 cells (2×10^6cells/ml) were seeded with modified F-12K buffer medium pH 7.4 in tissue culture plate and incubated for overnight at 37° C. and 5% CO2. Then medium was changed into new medium contained 10 uM testing compounds or 0.1% DMSO and incubated overnight. After incubation, cells were stimulated with 30 nM TNF-α (Tumor necrosis factor-α) for 16 h. For determination of PGE2, the supernatant was measured by PGE2 HTRF (Homogeneous Time Resolved Fluorescence) assay kit Inhibition of PGE2 by compounds is calculated as a percentage of activity in the presence of drug versus the activity in the stimulator TNF-α.

SMILES | IC50 (human 5-LOX; read-out: 5-LO (IC50)) | EC50 ([1]; Rattus norvegicus, RBL) | EC50 (Rat whole blood (RWB); Rattus norvegicus) | melting point | inhibition at 10 µM (HeLa S3 cells) | IC50 (human 5-LOX; 5-LO (IC50, uM)) | EC50 ([1]; Rattus norvegicus) | EC50 [1] | EC50 (Rat whole blood (RWB))
Nc1ccc2[nH]c(NCc3ccc(Oc4cccc(Cl)c4)cc3)nc2c1 [Compound 122] | < 1 µM | < 10 µM | < 10 µM | > 160.8 °C | – | – | – | – | –
Nc1ccc2[nH]c(NCc3ccc(S(=O)(=O)Nc4ccc(Cl)cc4)cc3)nc2c1 [Compound 151] | < 1 µM | > 20 µM | – | > 200 °C | – | – | – | – | –
Nc1ccc2[nH]c(NCc3cccc4ccccc34)nc2c1 [Compound 91] | < 1 µM | < 10 µM | 10 to 20 µM | > 107.8 °C | > 70% | – | – | – | –
Cn1c(NCc2ccc(Oc3ccc4c(Cl)cccc4n3)cc2)nc2ccc(NC3COC3)cc21 [Compound 425] | < 1 µM | < 10 µM | – | 102.3 to 107.3 °C | – | – | – | – | –
Nc1ccc2[nH]c(N3CCC(Oc4ccc(OC(F)(F)F)cc4)C3)nc2c1 (stereo not drawn) [Compound 54] | < 1 µM | < 10 µM | < 10 µM | – | > 70% | – | – | – | –
Nc1ccc2[nH]c(NCc3ccc(Oc4ccc(Cl)cc4)cc3)nc2c1 [Compound 86] | < 1 µM | < 10 µM | < 10 µM | – | > 70% | – | – | – | –
Nc1ccc2[nH]c(NCc3ccc(Oc4ccc(F)c(Cl)c4)cc3)nc2c1 [Compound 102] | < 1 µM | < 10 µM | < 10 µM | 58.4 to 66.6 °C | – | – | – | – | –
c1ccc(Oc2ccc(CNc3nc4cc(NC5CCOC5)ccc4[nH]3)cc2)cc1 (stereo not drawn) [Compound 119] | < 1 µM | < 10 µM | < 10 µM | > 54.3 °C | – | – | – | – | –
Nc1ccc2[nH]c(NCc3ccc(N4CCN(c5ccc(OC(F)(F)F)cc5)CC4)cc3)nc2c1 [Compound 114] | < 1 µM | 10 to 20 µM | > 20 µM | > 220 °C | – | – | – | – | –
Cn1c(NCc2ccc(Oc3ccc(C(F)(F)F)nc3)cc2)nc2ccc(NC3COC3)cc21 [Compound 226] | < 1 µM | < 10 µM | < 10 µM | – | > 70% | – | – | – | –
CN(C)c1ccc2[nH]c(NCc3ccc(Oc4ccccc4)cc3)nc2c1 [Compound 98] | < 1 µM | < 10 µM | < 10 µM | 116.8 to 118.7 °C | – | – | – | – | –
CN(C)c1nc2cc(N)ccc2n1CCOc1ccc(OC(F)(F)F)cc1 [Compound 43] | 1 to 10 µM | < 10 µM | > 20 µM | 60.8 to 61.6 °C | – | – | – | – | –
Nc1ccc2nc(NC3CCCC3)n(CCOc3ccc(OC(F)(F)F)cc3)c2c1 [Compound 120] | < 1 µM | < 10 µM | < 10 µM | 200.7 to 201.3 °C | – | – | – | – | –
Nc1ccc2nc(N)n(Cc3ccc(Oc4ccc(Cl)cc4)cc3)c2c1 [Compound 111] | < 1 µM | < 10 µM | < 10 µM | 156.4 to 158.5 °C | – | – | – | – | –
Nc1ccc2nc(NCc3ccc(Cl)cn3)[nH]c2c1 [Compound 158] | – | – | – | 101.8 to 104 °C | – | < 1 µM | > 20 µM | – | –
CC(C)(Nc1ccc2[nH]c(NCc3ccc(Oc4ccc(Cl)cc4)cc3)nc2c1)C(N)=O [Compound 118] | < 1 µM | < 10 µM | > 20 µM | > 113.2 °C | – | – | – | – | –
Cn1c(NCCOc2ccc(OC(F)(F)F)cc2)nc2cc(N)ccc21 [Compound 53] | < 1 µM | < 10 µM | < 10 µM | – | > 70% | – | – | – | –
Nc1ccc2c(c1)nc(N)n2CCc1ccc(F)cc1 [Compound 42] | 1 to 10 µM | 10 to 20 µM | – | 178.2 to 179.6 °C | – | – | – | – | –
CC(Cc1ccc(Cl)cc1Cl)Nc1nc2cc(N)ccc2[nH]1 (stereo not drawn) [Compound 107] | < 1 µM | < 10 µM | > 20 µM | > 200.9 °C | – | – | – | – | –
Cn1c(NCc2ccc(Oc3ccc(F)cn3)cc2)nc2ccc(N)cc21 [Compound 301] | < 1 µM | < 10 µM | – | 121.4 to 124.6 °C | – | – | – | – | –

SMILES | IC50 (human 5-LOX; read-out: 5-LO (IC50)) | EC50 ([1]; Rattus norvegicus, RBL) | EC50 (Rat whole blood (RWB); Rattus norvegicus) | melting point | inhibition at 10 µM (HeLa S3 cells) | IC50 (human 5-LOX; 5-LO (IC50, uM)) | EC50 ([1]; Rattus norvegicus) | EC50 [1] | EC50 (Rat whole blood (RWB))
Nc1ccc2[nH]c(N3CCC(Oc4ccc(F)cc4)CC3)nc2c1 [Compound 34] | < 1 µM | 10 to 20 µM | – | 193.3 to 205 °C | – | – | – | – | –
Cn1c(NCc2ccc(OCc3ccc(Cl)cn3)cc2)nc2ccc(N)cc21 [Compound 314] | < 1 µM | 10 to 20 µM | – | 96.6 to 100.9 °C | – | – | – | – | –
Nc1cc2nc(NCc3ccc(Oc4ccc(Cl)cc4)cc3)[nH]c2cc1Cl [Compound 147] | < 1 µM | < 10 µM | < 10 µM | 191.4 to 193.5 °C | – | – | – | – | –
Nc1ccc2[nH]c(NCc3cccc(Oc4ccccc4)c3)nc2c1 [Compound 103] | < 1 µM | < 10 µM | < 10 µM | – | > 70% | – | – | – | –
CC(C)(C)c1ccc(CNc2nc3ccc(N)cc3[nH]2)cc1 [Compound 116] | < 1 µM | < 10 µM | 10 to 20 µM | > 130.8 °C | – | – | – | – | –
Cn1c(NCc2ccc(Oc3nc4ccc(Cl)cc4n3C)cc2)nc2ccc(NC3COC3)cc21 [Compound 423] | < 1 µM | < 10 µM | – | 138.9 to 140.8 °C | – | – | – | – | –
CN(C)c1nc2ccc(N)cc2n1CCOc1ccc(OC(F)(F)F)cc1 [Compound 44] | < 1 µM | < 10 µM | > 20 µM | > 133 °C | 40 to 70% | – | – | – | –
CC(C)(Nc1ccc2[nH]c(NCc3ccc(Oc4ccccc4)cc3)nc2c1)C(N)=O [Compound 109] | < 1 µM | < 10 µM | < 10 µM | > 173 °C | – | – | – | – | –
Nc1ccc2[nH]c(NCc3ccc(N4CCC(c5ccc(Cl)cc5)CC4)cc3)nc2c1 [Compound 115] | < 1 µM | > 20 µM | – | > 220 °C | – | – | – | – | –
Nc1ccc2nc(N)n(Cc3ccc(Oc4ccc(Cl)cn4)cc3)c2c1 [Compound 195] | < 1 µM | < 10 µM | < 10 µM | – | < 40% | – | – | – | –
CC(C)(C)Oc1ccc(CNc2nc3ccc(N)cc3[nH]2)cc1 [Compound 121] | < 1 µM | < 10 µM | > 20 µM | > 59.7 °C | – | – | – | – | –
Cc1cnn(-c2nc3cc(N4CCN(c5ccc(F)cc5)CC4)ccc3[nH]2)c1 [Compound 25] | > 10 µM | – | – | > 220 °C | – | – | – | – | –
O=C(Nc1nc2cc(NCc3cnc[nH]3)ccc2[nH]1)c1ccc(F)cc1 [Compound 27] | 1 to 10 µM | > 20 µM | – | > 142.9 °C (dec.) | – | – | – | – | –
FC(F)(F)Oc1ccc(OC2CCN(c3ccc4nc(N5CCCC5)[nH]c4c3)C2)cc1 (stereo not drawn) [Compound 99] | < 1 µM | < 10 µM | > 20 µM | – | > 70% | – | – | – | –
CC(C)(C)c1ccc(Oc2ccc(CNc3nc4cc(N)ccc4[nH]3)cc2)cc1 [Compound 117] | < 1 µM | 10 to 20 µM | – | > 207.2 °C | – | – | – | – | –
Cn1c(NCc2ccc(Oc3ccc(Cl)cn3)cc2)nc2c(F)cc(NC3COC3)cc21 [Compound 553] | < 1 µM | < 10 µM | < 10 µM | – | – | – | – | – | –
CCn1c(NCc2ccc(Oc3ncc(OC(F)(F)F)cn3)cc2)nc2ccc(Nc3cc(C(F)(F)F)n(C)n3)cc21 [Compound 545] | 1 to 10 µM | < 10 µM | < 10 µM | – | – | – | – | – | –
OCCNc1nc2ccc(NC3COC3)cc2n1Cc1ccc(Oc2ccc(Cl)cc2)cc1 [Compound 204] | < 1 µM | < 10 µM | < 10 µM | – | – | – | – | – | –
CCn1c(NCc2ccc(Oc3ncc(C(F)(F)F)cn3)cc2)nc2ccc(Nc3n[nH]c(C)c3Cl)cc21 [Compound 516] | > 10 µM | – | – | – | – | – | – | < 10 µM | < 10 µM
COc1c(NC(C)c2ccc(Oc3ccc(OC(F)(F)F)cc3)cc2)ccc2[nH]c(N(C)C)nc12 (stereo not drawn) [Compound 191] | < 1 µM | < 10 µM | > 20 µM | – | – | – | – | – | –
